Results taken from BindingDB's records for patent US20250243196 (The Cleveland Clinic Foundation, 2025).

Target: Citron Rho-interacting kinase (Homo sapiens, UniProt O14578)
Assay: TR-FRET Based Assay
Description: Not found

Sequence of Citron Rho-interacting kinase (O14578 whole entry): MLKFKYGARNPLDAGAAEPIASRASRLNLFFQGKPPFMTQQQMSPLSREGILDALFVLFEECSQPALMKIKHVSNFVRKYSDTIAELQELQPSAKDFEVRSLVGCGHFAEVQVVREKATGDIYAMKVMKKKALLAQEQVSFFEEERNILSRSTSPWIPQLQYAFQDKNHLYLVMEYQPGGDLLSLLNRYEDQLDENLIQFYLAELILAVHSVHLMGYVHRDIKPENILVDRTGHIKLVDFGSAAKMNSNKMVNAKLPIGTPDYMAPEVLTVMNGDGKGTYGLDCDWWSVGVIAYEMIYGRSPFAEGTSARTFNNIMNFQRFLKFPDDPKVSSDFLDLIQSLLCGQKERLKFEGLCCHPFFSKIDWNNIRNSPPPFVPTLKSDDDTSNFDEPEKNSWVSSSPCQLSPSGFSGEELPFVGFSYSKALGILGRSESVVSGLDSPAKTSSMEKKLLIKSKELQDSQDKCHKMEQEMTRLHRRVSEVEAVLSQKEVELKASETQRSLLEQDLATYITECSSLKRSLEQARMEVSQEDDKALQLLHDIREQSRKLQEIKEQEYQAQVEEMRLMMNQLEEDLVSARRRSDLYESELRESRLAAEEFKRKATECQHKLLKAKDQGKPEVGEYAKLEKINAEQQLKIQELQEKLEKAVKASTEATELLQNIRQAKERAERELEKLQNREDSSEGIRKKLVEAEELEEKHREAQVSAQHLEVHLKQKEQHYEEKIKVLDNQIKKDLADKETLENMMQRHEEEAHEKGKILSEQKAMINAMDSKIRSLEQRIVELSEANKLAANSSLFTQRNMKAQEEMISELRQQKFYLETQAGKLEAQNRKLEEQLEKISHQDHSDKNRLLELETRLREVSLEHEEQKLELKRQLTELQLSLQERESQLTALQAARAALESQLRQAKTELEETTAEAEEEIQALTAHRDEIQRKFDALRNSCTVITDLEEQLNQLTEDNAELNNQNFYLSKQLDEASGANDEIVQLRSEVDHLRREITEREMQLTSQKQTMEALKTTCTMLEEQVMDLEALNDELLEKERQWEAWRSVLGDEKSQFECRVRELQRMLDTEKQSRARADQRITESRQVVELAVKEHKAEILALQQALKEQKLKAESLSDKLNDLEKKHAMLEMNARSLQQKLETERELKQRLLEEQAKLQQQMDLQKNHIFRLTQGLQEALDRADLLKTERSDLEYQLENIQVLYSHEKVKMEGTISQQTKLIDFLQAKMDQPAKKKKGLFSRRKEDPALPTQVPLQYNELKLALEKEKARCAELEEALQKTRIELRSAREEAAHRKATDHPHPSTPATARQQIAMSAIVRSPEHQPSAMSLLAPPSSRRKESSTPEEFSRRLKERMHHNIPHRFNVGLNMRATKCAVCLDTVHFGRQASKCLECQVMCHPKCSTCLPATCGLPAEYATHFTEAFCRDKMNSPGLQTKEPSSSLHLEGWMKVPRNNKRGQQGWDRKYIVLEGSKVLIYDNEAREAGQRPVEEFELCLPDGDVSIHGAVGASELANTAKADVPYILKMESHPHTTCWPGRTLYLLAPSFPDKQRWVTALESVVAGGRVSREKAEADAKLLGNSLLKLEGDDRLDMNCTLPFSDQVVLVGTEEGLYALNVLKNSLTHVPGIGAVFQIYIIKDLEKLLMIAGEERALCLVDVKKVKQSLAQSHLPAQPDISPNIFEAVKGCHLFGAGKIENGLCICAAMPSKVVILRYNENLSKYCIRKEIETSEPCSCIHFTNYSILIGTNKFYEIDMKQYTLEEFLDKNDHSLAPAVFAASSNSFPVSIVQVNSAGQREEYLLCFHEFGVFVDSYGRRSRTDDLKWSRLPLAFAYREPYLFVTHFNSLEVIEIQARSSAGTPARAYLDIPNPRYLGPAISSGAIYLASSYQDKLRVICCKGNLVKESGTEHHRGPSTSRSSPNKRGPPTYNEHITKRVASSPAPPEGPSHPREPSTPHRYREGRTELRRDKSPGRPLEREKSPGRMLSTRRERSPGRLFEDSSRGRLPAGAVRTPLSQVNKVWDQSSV

First: NC(Cc1ccccc1Cl)C(=O)Nc1ccc(-c2ccnc3[nH]ccc23)cc1 (stereo unspecified) [US20250243196, Compound F-125]
Second: NC(Cc1cccc(Cl)c1)C(=O)Nc1ccc(-c2ccnc3[nH]ccc23)cc1 (stereo unspecified) [US20250243196, Compound F-124]
The IC50 of the first is 3.3-fold higher: 1770 nM for the first, 536 nM for the second. The second is the more potent here.

First: NC(Cc1ccc(Cl)cc1)C(=O)Nc1ccc(-c2ccnc3[nH]ccc23)cc1 (stereo unspecified) [US20250243196, Compound F-123]
Second: CNC(Cc1ccccc1)C(=O)Nc1ccc(-c2ccnc3[nH]ccc23)cc1 (stereo unspecified) [US20250243196, Compound F-121]
The IC50 of the first is 2.3-fold lower: 1290 nM for the first, 3000 nM for the second.

Compared with `CN(C)C(Cc1ccccc1)C(=O)Nc1ccc(-c2ccnc3[nH]ccc23)cc1` (stereo unspecified) [US20250243196, Compound F-122], `NC(CC1CCOCC1)C(=O)Nc1ccc(-c2ccnc3[nH]ccc23)cc1` (stereo unspecified) [US20250243196, Compound F-120] is 9.8-fold lower in IC50: 1500 nM for the first, 153 nM for the second.
